Measurements from patent publication US11912701B2, “Protein kinase inhibitors for promoting liver regeneration or reducing or preventing hepatocyte death” (HEPAREGENIX GMBH, priority 2018, dated 2024).
pIC50: −log10 of the molar value.

Legend:
Format in all cases: biochemical
MKK4 = biological target: T1, MKK4 (Homo sapiens, UniProt P45985); experiment: 33PanQinase enzyme assay, MKK4; settings: assay 'IC50'; read-out: Potency MKK4 (IC50)
T1 construct: purchased ProQinase GmbH, Freiburg, Germany (33PanQinase Assay Service)
T1 sequence (P45985 1-399): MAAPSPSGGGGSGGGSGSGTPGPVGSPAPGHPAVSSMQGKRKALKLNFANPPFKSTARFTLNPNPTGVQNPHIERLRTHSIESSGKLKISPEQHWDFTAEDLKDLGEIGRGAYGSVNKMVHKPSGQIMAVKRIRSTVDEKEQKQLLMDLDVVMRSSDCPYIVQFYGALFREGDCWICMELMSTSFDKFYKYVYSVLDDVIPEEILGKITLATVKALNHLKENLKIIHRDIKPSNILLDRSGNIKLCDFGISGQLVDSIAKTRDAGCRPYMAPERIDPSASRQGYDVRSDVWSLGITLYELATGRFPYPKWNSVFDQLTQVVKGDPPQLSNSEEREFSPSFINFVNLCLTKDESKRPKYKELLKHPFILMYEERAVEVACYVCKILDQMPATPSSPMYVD
Method in brief: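 Radiometric 33PanQinase assay: kinase, substrate, ATP and compound in standard buffer, 60 min at 30 °C; 33Pi incorporation read by scintillation counting.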

JNK1 = JNK1 (Homo sapiens, UniProt P45983); experiment: 33PanQinase enzyme assay, JNK1; design: purchased ProQinase GmbH, Freiburg, Germany (33PanQinase Assay Service); settings: ratio IC50(JNK1)/IC50(MKK4)
Method in brief: (§1)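 Radiometric kinase reactions with ATP, test compound in DMSO and enzyme/substrate mix were incubated 60 min at 30 °C, stopped with 2% H3PO4 and washed; incorporated 33Pi was counted by scintillation. Single-concentration data are given as % residual activity; IC50 values come from least-squares curve fits.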

BRaf = biological target: T2, BRaf (Homo sapiens, UniProt P15056); experiment: 33PanQinase enzyme assay, BRaf; settings: ratio IC50(BRaf)/IC50(MKK4)
T2 construct: purchased ProQinase GmbH, Freiburg, Germany (33PanQinase Assay Service)
Method in brief: as §1

MKK7 = biological target: T3, MKK7 (Homo sapiens, UniProt O14733); experiment: 33PanQinase enzyme assay, MKK7; design: purchased ProQinase GmbH, Freiburg, Germany (33PanQinase Assay Service); settings: ratio IC50(MKK7)/IC50(MKK4)
T3 sequence (O14733 1-419): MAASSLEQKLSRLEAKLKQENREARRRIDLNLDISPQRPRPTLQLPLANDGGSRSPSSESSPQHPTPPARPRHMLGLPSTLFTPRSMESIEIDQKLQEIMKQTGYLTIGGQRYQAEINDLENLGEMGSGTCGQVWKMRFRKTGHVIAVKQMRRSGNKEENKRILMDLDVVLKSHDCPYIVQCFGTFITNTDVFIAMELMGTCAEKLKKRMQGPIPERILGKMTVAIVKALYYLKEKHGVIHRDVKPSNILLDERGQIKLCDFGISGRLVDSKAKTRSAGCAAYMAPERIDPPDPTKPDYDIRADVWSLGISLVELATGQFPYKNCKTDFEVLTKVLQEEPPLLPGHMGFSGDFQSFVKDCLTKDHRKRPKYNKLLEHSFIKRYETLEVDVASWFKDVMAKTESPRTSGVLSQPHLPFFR
Method in brief: as §1

Chain of JNK1 (P45983 whole entry): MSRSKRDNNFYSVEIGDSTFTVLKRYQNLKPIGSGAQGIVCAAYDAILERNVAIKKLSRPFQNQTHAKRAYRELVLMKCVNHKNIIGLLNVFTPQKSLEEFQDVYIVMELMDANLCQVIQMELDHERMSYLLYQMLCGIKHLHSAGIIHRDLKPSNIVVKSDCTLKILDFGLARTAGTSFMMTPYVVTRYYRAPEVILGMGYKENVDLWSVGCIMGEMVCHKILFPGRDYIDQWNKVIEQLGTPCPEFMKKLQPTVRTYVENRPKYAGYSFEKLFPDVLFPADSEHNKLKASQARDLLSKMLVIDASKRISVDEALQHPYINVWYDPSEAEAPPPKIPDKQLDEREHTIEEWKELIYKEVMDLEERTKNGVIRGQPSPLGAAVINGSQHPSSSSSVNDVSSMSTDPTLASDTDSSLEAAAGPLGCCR
T2 sequence (P15056 whole entry, species assumed): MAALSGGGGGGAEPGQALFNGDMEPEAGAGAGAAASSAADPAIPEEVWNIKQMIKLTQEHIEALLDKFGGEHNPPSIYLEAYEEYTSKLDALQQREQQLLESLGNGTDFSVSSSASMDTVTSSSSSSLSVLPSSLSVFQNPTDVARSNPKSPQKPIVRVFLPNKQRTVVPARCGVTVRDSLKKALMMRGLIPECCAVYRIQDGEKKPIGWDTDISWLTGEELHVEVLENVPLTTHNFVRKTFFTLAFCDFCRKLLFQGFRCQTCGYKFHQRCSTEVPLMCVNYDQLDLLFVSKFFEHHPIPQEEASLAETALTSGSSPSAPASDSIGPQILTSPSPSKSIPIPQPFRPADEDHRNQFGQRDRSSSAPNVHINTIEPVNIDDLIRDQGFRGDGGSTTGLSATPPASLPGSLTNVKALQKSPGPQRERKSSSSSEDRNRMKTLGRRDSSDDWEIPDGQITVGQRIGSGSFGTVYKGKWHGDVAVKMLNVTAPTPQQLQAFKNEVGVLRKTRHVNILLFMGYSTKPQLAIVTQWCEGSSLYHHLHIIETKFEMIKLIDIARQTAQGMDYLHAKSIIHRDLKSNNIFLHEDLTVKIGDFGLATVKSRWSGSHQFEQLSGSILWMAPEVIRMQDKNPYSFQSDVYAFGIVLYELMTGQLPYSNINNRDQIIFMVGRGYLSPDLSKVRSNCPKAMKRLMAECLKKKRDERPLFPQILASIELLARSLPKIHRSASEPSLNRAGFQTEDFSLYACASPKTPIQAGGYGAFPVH

| Structure (SMILES) | pIC50 (MKK4) | Selectivity JNK1, IC50(off-target)/IC50(MKK4) (JNK1) | Selectivity Braf, IC50(off-target)/IC50(MKK4) (BRaf) | Selectivity IVIKK7, IC50(off-target)/IC50(MKK4) (MKK7) |
| --- | --- | --- | --- | --- |
| CCCS(=O)(=O)Nc1ccc(F)c(C(=O)c2c[nH]c3ncc(-c4ccc(SC)cc4)cc23)c1F [Example 55] | 6.00 to 7.00 | + (10 ≥ IC50(off-target)/IC50(MKK4) > 3) | ◯ (3 ≥ IC50(off-target)/IC50(MKK4)) | +++ (IC50(off-target)/IC50(MKK4) > 100) |
| CCCS(=O)(=O)Nc1c(F)ccc(C(=O)c2c[nH]c3ncc(-c4cnc(N(C)CCO)nc4)cc23)c1F [Example 202, N-(2,6-difluoro-3-(5-(2-((2-hydroxyethyl)(methyl)amino)pyrimidin-5-yl)-1H-pyrrolo[2,3-b]pyridine-3-carbonyl)phenyl)propane-1-sulfonamide] | > 7.00 | +++ (IC50(off-target)/IC50(MKK4) > 100) | ++ (100 ≥ IC50(off-target)/IC50(MKK4) > 10) | +++ (IC50(off-target)/IC50(MKK4) > 100) |
| CCCS(=O)(=O)Nc1ccc(F)c(C(=O)c2c[nH]c3ncc(-c4cccc(C)c4)cc23)c1F [Example 114, N-(2,4-difluoro-3-(5-(m-tolyl)-1H-pyrrolo[2,3-b]pyridine-3-carbonyl)phenyl)propane-1-sulfonamide] | 6.00 to 7.00 | + (10 ≥ IC50(off-target)/IC50(MKK4) > 3) | ◯ (3 ≥ IC50(off-target)/IC50(MKK4)) | +++ (IC50(off-target)/IC50(MKK4) > 100) |
| CCCS(=O)(=O)Nc1ccc(F)c(C(=O)c2c[nH]c3ncc(N4CCC(O)CC4)cc23)c1F [Example 136, N-(2,4-difluoro-3-(5-(4-hydroxypiperidin-1-yl)-1H-pyrrolo[2,3-b]pyridine-3-carbonyl)phenyl)propane-1-sulfonamide] | 5.00 to 6.00 | ◯ (3 ≥ IC50(off-target)/IC50(MKK4)) | ◯ (3 ≥ IC50(off-target)/IC50(MKK4)) | ++ (100 ≥ IC50(off-target)/IC50(MKK4) > 10) |
| CCCS(=O)(=O)Nc1ccc(F)c(C(=O)c2c[nH]c3ncc(C(=O)NOCCO)cc23)c1F [Example 94, 3-(2,6-difluoro-3-(propylsulfonamido)benzoyl)-N-(2-hydroxyethoxy)-1H-pyrrolo[2,3-b]pyridine-5-carboxamide] | > 7.00 | + (10 ≥ IC50(off-target)/IC50(MKK4) > 3) | ◯ (3 ≥ IC50(off-target)/IC50(MKK4)) | +++ (IC50(off-target)/IC50(MKK4) > 100) |
| CCCS(=O)(=O)Nc1ccc(F)c(C(=O)c2c[nH]c3ncc(-c4cccc(C(F)(F)F)c4)cc23)c1F [Example 117, N-(2,4-difluoro-3-(5-(3-(trifluoromethyl)phenyl)-1H-pyrrolo[2,3-b]pyridine-3-carbonyl)phenyl)propane-1-sulfonamide] | 5.00 to 6.00 | ◯ (3 ≥ IC50(off-target)/IC50(MKK4)) | ◯ (3 ≥ IC50(off-target)/IC50(MKK4)) | +++ (IC50(off-target)/IC50(MKK4) > 100) |

The remaining lines, values ahead:

| pIC50 (MKK4) | Selectivity JNK1, IC50(off-target)/IC50(MKK4) (JNK1) | Selectivity Braf, IC50(off-target)/IC50(MKK4) (BRaf) | Selectivity IVIKK7, IC50(off-target)/IC50(MKK4) (MKK7) | Structure (SMILES) |
| --- | --- | --- | --- | --- |
| 6.00 to 7.00 | ◯ (3 ≥ IC50(off-target)/IC50(MKK4)) | + (10 ≥ IC50(off-target)/IC50(MKK4) > 3) | +++ (IC50(off-target)/IC50(MKK4) > 100) | Nc1c(F)ccc(C(=O)c2c[nH]c3ncc(-c4ccc(Cl)cc4)cc23)c1F [Example 212, (3-amino-2,4-difluorophenyl)(5-(4-chlorophenyl)-1H-pyrrolo[2,3-b]pyridin-3-yl)methanone] |
| 6.00 to 7.00 | + (10 ≥ IC50(off-target)/IC50(MKK4) > 3) | ◯ (3 ≥ IC50(off-target)/IC50(MKK4)) | +++ (IC50(off-target)/IC50(MKK4) > 100) | CCCS(=O)(=O)Nc1c(F)ccc(C(=O)c2c[nH]c3ncc(-c4ccccc4C)cc23)c1F [Example 215, N-(2,6-difluoro-3-(5-(o-tolyl)-1H-pyrrolo[2,3-b]pyridine-3-carbonyl)phenyl)propane-1-sulfonamide] |
